Experimental findings from ChEMBL document CHEMBL3804818 (J Med Chem, 2016) are described below.

Assay [1] concerns the target Heat shock protein HSP 90-alpha (Homo sapiens, UniProt P07900).
A further assay addresses Endoplasmin (Homo sapiens, UniProt P14625).

Sequence of Endoplasmin (P14625 whole entry): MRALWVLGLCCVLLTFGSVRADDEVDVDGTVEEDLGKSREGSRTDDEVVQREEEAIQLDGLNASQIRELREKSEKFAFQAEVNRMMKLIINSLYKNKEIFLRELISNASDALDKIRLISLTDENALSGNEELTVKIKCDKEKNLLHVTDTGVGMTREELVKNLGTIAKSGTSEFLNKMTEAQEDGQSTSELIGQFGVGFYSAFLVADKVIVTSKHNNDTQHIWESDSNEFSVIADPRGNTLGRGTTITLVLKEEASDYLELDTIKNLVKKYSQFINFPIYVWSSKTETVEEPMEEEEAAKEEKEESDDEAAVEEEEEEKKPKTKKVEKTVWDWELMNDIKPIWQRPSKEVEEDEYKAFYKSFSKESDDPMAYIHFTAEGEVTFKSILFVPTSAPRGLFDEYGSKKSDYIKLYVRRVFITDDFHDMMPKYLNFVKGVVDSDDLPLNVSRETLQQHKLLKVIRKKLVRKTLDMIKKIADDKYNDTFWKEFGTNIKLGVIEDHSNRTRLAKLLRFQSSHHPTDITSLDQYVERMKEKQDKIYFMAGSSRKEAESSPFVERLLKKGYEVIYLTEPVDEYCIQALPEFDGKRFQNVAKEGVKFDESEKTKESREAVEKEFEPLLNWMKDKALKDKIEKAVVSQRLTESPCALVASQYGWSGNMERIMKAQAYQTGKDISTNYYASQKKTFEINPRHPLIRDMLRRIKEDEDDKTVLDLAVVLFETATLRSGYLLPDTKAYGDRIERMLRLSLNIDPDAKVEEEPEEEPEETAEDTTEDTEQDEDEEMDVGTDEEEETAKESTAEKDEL

Turning to `COC(=O)c1c(O)cc(O)c(Cl)c1CCc1nccn1Cc1nccs1`, the dissociation constant (Kd) – broadly, the free concentration of one partner at which half of the binding sites on the other are occupied at equilibrium, for simple one-to-one binding – was found to be 16000 nM in assay [1] and 2500 nM at Endoplasmin.
As to `COC(=O)c1c(O)cc(O)c(Cl)c1CCc1nccn1Cc1ccccc1Br`, the Kd on Endoplasmin is 1600 nM.
The same measure, in the same setting: in the case of `COC(=O)c1c(O)cc(O)c(Cl)c1CCc1nccn1Cc1ccc(Cl)cc1` it was 810 nM.
Consider `CCCOc1ccccc1Cn1ccnc1CCc1c(Cl)c(O)cc(O)c1C(=O)OC`, for which the dissociation constant Kd in assay [1] came to 2300 nM; on Endoplasmin, 250 nM.
For the compound `COC(=O)c1c(O)cc(O)c(Cl)c1CCc1nccn1Cc1ccno1`, the Kd in assay [1] worked out at 810 nM; at Endoplasmin, 400 nM.
In the same order, the values of `COC(=O)c1c(O)cc(O)c(Cl)c1CCc1nccn1Cc1ccc(C#N)cc1` are 18200 nM and 4700 nM.
Take `COC(=O)c1c(O)cc(O)c(Cl)c1CCc1nccn1Cc1ccccc1OC`: the Kd in assay [1] came out at 53900 nM; on Endoplasmin, 1300 nM.
Regarding `COC(=O)c1c(O)cc(O)c(Cl)c1CCc1nccn1Cc1sccc1Cl`, the dissociation constant (Kd) in assay [1] turned out to be 3160 nM; on Endoplasmin it was 760 nM.
On the same counts, the results for `CCc1ccccc1Cn1ccnc1CCc1c(Cl)c(O)cc(O)c1C(=O)OC` are 38800 nM and 810 nM.
`C#Cc1ccc(Cn2ccnc2CCc2c(Cl)c(O)cc(O)c2C(=O)OC)cc1`: the Kd in assay [1] amounted to 15800 nM; at Endoplasmin, 1400 nM.
On the same counts, the results for `COC(=O)c1c(O)cc(O)c(Cl)c1CCc1nccn1Cc1cccc(F)c1` are 9630 nM and 1530 nM.
On Endoplasmin, `COC(=O)c1c(O)cc(O)c(Cl)c1CCc1nccn1Cc1cccnc1` yielded a Kd of 4040 nM.
`COC(=O)c1c(O)cc(O)c(Cl)c1CCc1nccn1Cc1ccccc1OC(C)C`: the Kd was determined as 240 nM in assay [1] and 90 nM on Endoplasmin.
For `COC(=O)c1c(O)cc(O)c(Cl)c1CCc1nccn1Cc1ccc(C)s1`, the Kd in assay [1] stood at 5130 nM; on Endoplasmin it was 680 nM.
Take `COC(=O)c1c(O)cc(O)c(Cl)c1CCc1nccn1Cc1ccc(F)cc1`: on Endoplasmin, the Kd was found to be 3200 nM. This lies in the single-digit micromolar range.
Consider `CCc1ccsc1Cn1ccnc1CCc1c(Cl)c(O)cc(O)c1C(=O)OC`, for which the Kd in assay [1] amounted to 6940 nM; on Endoplasmin, 720 nM.
In the same order, the values of `COC(=O)c1c(O)cc(O)c(Cl)c1CCc1nccn1Cc1cncnc1` are 9920 nM and 9180 nM.
For the compound `COC(=O)c1c(O)cc(O)c(Cl)c1CCc1nccn1Cc1ccccc1C(F)(F)F`, the dissociation constant Kd in assay [1] was 19300 nM; at Endoplasmin it was 1530 nM.
For the compound `C=Cc1ccoc1Cn1ccnc1CCc1c(Cl)c(O)cc(O)c1C(=O)OC`, at Endoplasmin, binding was put at a Kd of 2360 nM.
Take `COC(=O)c1c(O)cc(O)c(Cl)c1CCc1nccn1Cc1cc(Cl)cs1`: the Kd is 1800 nM in assay [1] and 670 nM on Endoplasmin.
`CCOc1ccccc1Cn1ccnc1CCc1c(Cl)c(O)cc(O)c1C(=O)OC`: the Kd in assay [1] turned out to be 8100 nM; at Endoplasmin, 200 nM.
In the case of `COC(=O)c1c(O)cc(O)c(Cl)c1CCc1nccn1Cc1ccco1`, the Kd was found to be 5910 nM in assay [1] and 550 nM at Endoplasmin.
For `C=Cc1ccsc1Cn1ccnc1CCc1c(Cl)c(O)cc(O)c1C(=O)OC`, the Kd is 36700 nM in assay [1] and 750 nM at Endoplasmin.
In the same order, the values of `COC(=O)c1c(O)cc(O)c(Cl)c1CCc1nccn1Cc1oc(C)cc1C` are 9200 nM and 350 nM.
On the same counts, the results for `COC(=O)c1c(O)cc(O)c(Cl)c1CCc1nccn1Cc1ccccc1Cl` are 8470 nM and 1390 nM.
Compound `COC(=O)c1c(O)cc(O)c(Cl)c1CCc1nccn1Cc1ccc(C)o1` returned a Kd at Endoplasmin of 650 nM.
In the case of `COC(=O)c1c(O)cc(O)c(Cl)c1CCc1nccn1Cc1ccc(OC)cc1`, the dissociation constant (Kd) in assay [1] is > 150000 nM; on Endoplasmin, 6900 nM.
On the same counts, the results for `COC(=O)c1c(O)cc(O)c(Cl)c1CCc1nccn1Cc1ccc(C)cc1` are 25200 nM and 730 nM.
On to `COC(=O)c1c(O)cc(O)c(Cl)c1CCc1nccn1Cc1ccsc1`, for which the equilibrium dissociation constant (Kd) in assay [1] was 6540 nM; on Endoplasmin, 2140 nM.
In the same order, the values of `COC(=O)c1c(O)cc(O)c(Cl)c1CCc1nccn1Cc1cccs1` are 3920 nM and 470 nM.
On to `COC(=O)c1c(O)cc(O)c(Cl)c1CCc1nccn1Cc1ccc(Cl)s1`, for which the dissociation constant Kd in assay [1] was determined as 34700 nM; at Endoplasmin it was 930 nM.
In the same order, the values of `COC(=O)c1c(O)cc(O)c(Cl)c1CCc1nccn1Cc1ccoc1` are 3770 nM and 1500 nM.
In the same order, the values of `COC(=O)c1c(O)cc(O)c(Cl)c1CCc1nccn1Cc1ccccc1C` are 68100 nM and 3000 nM.
In the same order, the values of `COC(=O)c1c(O)cc(O)c(Cl)c1CCc1nccn1Cc1ccccc1F` are 11400 nM and 1360 nM.
Take `COC(=O)c1c(O)cc(O)c(Cl)c1CCc1nccn1Cc1ccc(C)cc1OC`: the dissociation constant Kd came to 72500 nM in assay [1] and 2350 nM at Endoplasmin.
On the same counts, the results for `COC(=O)c1c(O)cc(O)c(Cl)c1CCc1nccn1Cc1ccccn1` are 9920 nM and 4940 nM.
